Assay results: US9745328B2, “Flap modulators” (JANSSEN PHARMACEUTICA NV, priority 2013, dated 2017)
Structures can show the parent of a compound that is named as a salt.

Target: human FLAP (Homo sapiens (Human), UniProt P20292)
Assay: FLAP binding assay (HTRF format)
Conditions: Table 6 (additional runs), human FLAP wild type
Outline: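 Read-out is the HTRF ratio. Each reported figure averages two assay plates on which samples were tested in duplicate.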

Sequence of human FLAP (P20292 whole entry): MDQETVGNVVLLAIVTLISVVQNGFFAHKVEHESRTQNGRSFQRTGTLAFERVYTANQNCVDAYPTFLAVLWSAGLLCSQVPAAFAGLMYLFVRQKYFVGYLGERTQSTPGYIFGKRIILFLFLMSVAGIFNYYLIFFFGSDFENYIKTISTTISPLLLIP

| SMILES | Ki |
| --- | --- |
| Nc1cnc(-c2ccc(-c3ccccc3S(=O)(=O)NCCc3ccccc3)cc2F)cn1 [Example 17, 4′-(5-Aminopyrazin-2-yl)-3′-fluoro-N-(2-phenylethyl)biphenyl-2-sulfonamide] | 1.7 nM |
| Nc1cnc(-c2ccc(-c3ccccc3Sc3ncccn3)cc2F)cn1 [Example 213, 5-[3-Fluoro-2′-(pyrimidin-2-ylsulfanyl)biphenyl-4-yl]pyrazin-2-amine hydrochloride] | 2.4 nM |
| CCC(C)(C)NS(=O)(=O)c1ccccc1-c1ccc(-c2cnc(N)cn2)c(F)c1 [Example 12, 4′-(5-Aminopyrazin-2-yl)-N-(1,1-dimethylpropyl)-3′-fluorobiphenyl-2-sulfonamide] | 1.9 nM |
| Nc1ncc(-c2ccc(-c3ccccc3S(=O)(=O)N[C@H]3CCCC[C@H]3O)cc2F)cn1 (racemic) [Example 259, racemic (cis) 4′-(2-Aminopyrimidin-5-yl)-3′-fluoro-N-[(cis)-2-hydroxycyclohexyl]biphenyl-2-sulfonamide] | 7.8 nM |
| CNC1CCN(S(=O)(=O)c2ccccc2-c2ccc(-c3cnc(N)cn3)c(F)c2)CC1 [Example 72, 5-{3-Fluoro-2′-{[4-(methylamino)piperidin-1-yl]sulfonyl}biphenyl-4-yl)pyrazin.-2-amine] | 120 nM |
| Nc1cnc(-c2ccc(-c3ccccc3S(=O)(=O)NCC3(O)CCCCC3)cc2F)cn1 [Example 99, 4′-(5-Aminopyrazin-2-yl)-3′-fluoro-N-[(1-hydroxycyclohexyl)methyl]biphenyl-2-sulfonamide] | 1.6 nM |
| CC(=O)N1CCN(S(=O)(=O)c2ccccc2-c2ccc(-c3cnc(N)cn3)c(F)c2)CC1 [Example 57, 5-{2′-[(4-Acetylpiperazin-1-yl)sulfonyl]-3-fluorobiphenyl-4-yl}pyrazin-2-amine] | 13.4 nM |
| Nc1cnc(-c2ccc(-c3ccccc3S(=O)(=O)C3CC3)cc2F)cn1 [Example 197, 5-[2′-(Cyclopropylsulfonyl)-3-fluorobiphenyl-4-yl]pyrazin-2-amine] | 7.1 nM |

The remaining lines, values ahead:

| Ki | SMILES |
| --- | --- |
| 5.6 nM | CC(C)N(CCO)S(=O)(=O)c1ccccc1-c1ccc(-c2cnc(N)nc2)c(F)c1 [Example 261, 4′-(2-Aminopyrimidin-5-yl)-3′-fluoro-N-(2-hydroxyethyl)-N-(1-methylethyl)biphenyl-2-sulfonamide] |
| 4.3 nM | CCN(CC)S(=O)(=O)c1ccccc1-c1ccc(-c2ccc(N)nc2)c(F)c1 [Example 343, 4′-(6-aminopyridin-3-yl)-N,N-diethyl-3′-fluoro-[1,1′-biphenyl]-2-sulfonamide] |
| 63.2 nM | Nc1cnc(-c2ccc(-c3ccccc3SC(F)(F)F)cc2F)cn1 [Example 189, 5-{3-Fluoro-2′-[(trifluoromethyl)-sulfanyl]biphenyl-4-yl}pyrazin-2-amine] |
| 1.5 nM | CC(C)[C@H](CO)NS(=O)(=O)c1ccccc1-c1ccc(-c2cnc(N)cn2)c(F)c1 [Example 109] |
| 2.5 nM | CC[C@@H](CO)NS(=O)(=O)c1ccccc1-c1ccc(-c2cnc(N)cn2)c(F)c1 [Example 153, (S)-4′-(5-aminopyrazin-2-yl)-3′-fluoro-N-(1-hydroxybutan-2-yl)-[1,1′-biphenyl]-2-suifonamide] |
| 5.3 nM | CC(C)C[C@@H](CO)NS(=O)(=O)c1ccccc1-c1ccc(-c2cnc(N)cn2)c(F)c1 [Example 79, 4′-(5-Aminopyrazin-2-yl)-3′-fluoro-N-[(1S)-1-(hydroxymethyl)-3-methylbutyl]biphenyl-2-sulfonamide] |
| 2.7 nM | Nc1cnc(-c2ccc(-c3ccccc3S(=O)(=O)NC3CC4CCC3C4)cc2F)cn1 (racemic) [Example 10, (racemic)-(endo)-4′-(5-Aminopyrazin-2-yl)-N-bicyclo[2.2.1]hept-2-yl-3′-fluorobiphenyl-2-sulfonamide racemic] |
| 9.9 nM | Nc1ncc(-c2ccc(-c3ccccc3S(=O)(=O)N[C@@H](c3ccccc3)C(F)(F)F)cc2F)cn1 [Example 292, 4′-(2-Aminopyrimidin-5-yl)-3′-fluoro-N-[(1S)-2,2,2-trifluoro-1-phenylethyl]biphenyl-2-sulfonamide trifluoroacetic acid salt] |
| 0.4 nM | C[C@@H]([C@@H](O)c1ccccc1)N(C)S(=O)(=O)c1ccccc1-c1ccc(-c2cnc(N)cn2)c(F)c1 [Example 118, 4′-(5-aminopyrazin-2-yl)-3′-fluoro-N-((1S,2S)-1-hydroxy-1-phenylpropan-2-yl)-N-methyl-[1,1′-biphenyl)-2-sulfonamide] |
| 1070 nM | Nc1cnc(-c2ccc(-c3ccccc3CS(=O)(=O)N3CCC(N)CC3)cc2F)cn1 [Example 229, 5-(2′-{[(4-Aminopiperidin.-1-yl)sulfonyl]methyl}-3-fluorobiphenyl-4-yl)pyrazin-2-amine hydrochloride] |
| 0.7 nM | Nc1cnc(-c2ccc(-c3ccccc3Sc3ccnc(N)n3)cc2F)cn1 [Example 242, 4-{[4′(5-Aminopyrazin-2-yl)-3′-fluorobiphenyl-2-yl]sulfanyl}pyrimidin-2-amine hydrochloride] |
| 0.7 nM | Nc1cnc(-c2ccc(-c3ccccc3S(=O)(=O)N[C@@H]3CCCC[C@@H]3CO)cc2F)cn1 (racemic) [Example 122, racemic (cis)-4′-(5-Aminopyrazin-2-yl)-3′-fluoro-N-[2-(hydroxymethyl)cyclohexyl]biphenyl-2-sulfonamide] |

Same assay, conditions: human FLAP wild type, Table 6 (additional runs)

| SMILES | Ki |
| --- | --- |
| Cc1nc(-c2ccc(-c3ccccc3S(N)(=O)=O)cc2F)cnc1N [Example 446, 4′-(5-Amino-6-methylpyrazin-2-yl)-3′-fluorobiphenyl-2-sulfonamide] | 304 nM |
| Nc1cnc(-c2ccc(-c3cccnc3OC3CCNCC3)cc2F)cn1 [Example 645] | > 10000 nM |
| Nc1ncc(-c2ccc(-c3cccnc3OC3CCNCC3)cc2F)cn1 [Example 646, 5-{2-Fluoro-4-[2-(piperidin-4-yloxy)pyridin-3-yl]phenyl}pyrimidin-2-amine] | > 10000 nM |
| C[C@H]1CN(C(=O)c2ccccc2-c2ccc(-c3cnc(N)nc3)c(F)c2)CCO1 [Example 777, 5-(3-Fluoro-2′-{[(2S)-2-methylmorpholin-4-yl]carbonyl}biphenyl-4-yl)pyrimidin-2-amine] | 1620 nM |
| Nc1ncc(-c2ccc(-c3ccccc3Oc3cccc(C(F)(F)F)n3)cc2F)cn1 [Example 624, 5-(3-Fluoro-2′-{[6-(trifluoromethyl)pyridin-2-yl]oxy}biphenyl-4-yl)pyrimidin-2-amine] | 32.7 nM |

The remaining lines, values ahead:

| Ki | SMILES |
| --- | --- |
| 2.4 nM | CC(C)(C)NS(=O)(=O)c1ccccc1-c1ccc(-c2cnc(N)c(Cl)c2)c(F)c1 [Example 451, 4′-(6-Amino-5-chloropyridin-3-yl)-N-tert-butyl-3′-fluorobiphenyl-2-sulfonamide trifluoroacetic acid salt] |
| 1.1 nM | COc1nc(-c2ccc(-c3ccccc3S(=O)(=O)NC(C)(C)C)cc2F)cnc1N [Example 433, 4′-(5-Amino-6-methoxypyrazin-2-yl)-N-tert-butyl-3′-fluorobiphenyl-2-sulfonamide] |
| 397 nM | Cc1ccccc1-c1ccc(-c2cnc(N)cn2)c(F)c1 [Example 470, 5-(3-Fluoro-2′-methylbiphenyl-4-yl)pyrazin-2-amine] |
| 4.5 nM | Nc1cnc(-c2ccc(-c3ccccc3Oc3ccnc(N)n3)cc2F)cn1 [Example 533, 4-{[4′-(5-Aminopyrazin-2-yl)-3′-fluorobiphenyl-2-yl]oxy}pyrimidin-2-amine] |

Same assay, conditions: human FLAP wild type, a calculated value of 0.000 indicates Ki less than 1 nM

| Ki | SMILES |
| --- | --- |
| < 1 nM | C[C@@H]([C@@H](O)c1ccccc1)N(C)S(=O)(=O)c1ccccc1-c1ccc(-c2cnc(N)cn2)c(F)c1 [Example 118, 4′-(5-aminopyrazin-2-yl)-3′-fluoro-N-((1S,2S)-1-hydroxy-1-phenylpropan-2-yl)-N-methyl-[1,1′-biphenyl)-2-sulfonamide] |
